{"source": "patent US8618139B2", "about": "“Oxadiazole derivatives as sphingosine 1-phosphate (S1P) receptor modulators” (Allergan, Inc., priority 2010, dated 2013)"}
{"biological_target": "T1, human S1P1 receptor (Homo sapiens, UniProt P21453)", "T1 construct": "expressed in transfected cells; membranes used", "T1 sequence (P21453 whole entry)": "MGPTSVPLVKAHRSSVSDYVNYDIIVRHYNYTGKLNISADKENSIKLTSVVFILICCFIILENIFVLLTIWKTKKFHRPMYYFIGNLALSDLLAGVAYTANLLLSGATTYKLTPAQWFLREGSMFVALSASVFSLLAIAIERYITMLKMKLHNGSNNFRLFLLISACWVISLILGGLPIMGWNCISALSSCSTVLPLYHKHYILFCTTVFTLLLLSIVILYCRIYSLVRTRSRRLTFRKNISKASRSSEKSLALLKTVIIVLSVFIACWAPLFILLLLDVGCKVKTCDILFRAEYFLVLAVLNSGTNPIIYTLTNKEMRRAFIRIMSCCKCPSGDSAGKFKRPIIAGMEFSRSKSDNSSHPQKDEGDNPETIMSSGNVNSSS", "assay": "GTP γ35S binding assay for S1P1 activity", "format": "biochemical", "details": "activity potency from GTP γ35S binding; membranes, test compounds 0.08 to 5,000 nM, 30 min at 25° C.", "procedure": "Compounds were synthesized and tested for S1P1 activity using the GTP γ^35S binding assay. These compounds may be assessed for their ability to activate or block activation of the human S1P1 receptor in cells stably expressing the S1P1 receptor.\nGTP γ^35S binding was measured in the medium containing (mM) HEPES 25, pH 7.4, MgCl2 10, NaCl 100, dithitothreitol 0.5, digitonin 0.003%, 0.2 nM GTP γ^35S, and 5 μg membrane protein in a volume of 150 μl. Test compounds were included in the concentration range from 0.08 to 5,000 nM unless indicated otherwise. Membranes were incubated with 100 μM 5′-adenylylimmidodiphosphate for 30 min, and subsequently with 10 μM GDP for 10 min on ice. Drug solutions and membrane were mixed, and then reactions were initiated by adding GTP γ^35S and continued for 30 min at 25° C. Reaction mixtures were filtered over Whatman GF/B filters under vacuum, and washed three times with 3 mL of ice-cold buffer (HEPES 25, pH7.4, MgCl2 10 and NaCl 100). Filters were dried and mixed with scintillant, and counted for ^35S activity using a β-counter. Agonist-induced GTP γ^35S binding was obtained by subtracting that in the absence of agonist. Binding data were analyzed using a non-linear regression method. In case of antagonist assay, the reaction mixture contained 10 nM S1P in the presence of test antagonist at concentrations ranging from 0.08 to 5000 nM.", "units": {"EC50": "µM"}}
{"compound": "CNc1ncccc1-c1noc(C(Nc2ccc(C)c(C)c2)c2cccc(Cl)c2)n1", "note": "(stereo not shown) [Compound 1, 3-(5-((3-chlorophenyl)((3,4-dimethylphenyl)amino)methyl)-1,2,4-oxadiazol-3-yl)-N-methylpyridin-2-amine]", "EC50": 0.336}
{"compound": "CNc1ncccc1-c1noc(C(Sc2ccc(C)c(C)c2)c2cccc(Br)c2)n1", "note": "(stereo not shown) [Compound 2, 3-(5-((3-bromophenyl)((3,4-dimethylphenyl)thio)methyl)-1,2,4-oxadiazol-3-yl)-N-methylpyridin-2-amine]", "EC50": 0.65}
{"compound": "CNc1ncccc1-c1noc(C(Sc2ccc(C)c(C)c2)c2cccc(F)c2)n1", "note": "(stereo not shown) [Compound 3, 3-(5-(((3,4-dimethylphenyl)thio)(3-fluorophenyl)methyl)-1,2,4-oxadiazol-3-yl)-N-methylpyridin-2-amine]", "EC50": 0.368}
{"compound": "CNc1ncccc1-c1noc(C(Sc2ccc(C)c(C)c2)c2ccc(Cl)c(Cl)c2)n1", "note": "(stereo not shown) [Compound 4, 3-(5-((3,4-dichlorophenyl)((3,4-dimethylphenyl)thio)methyl)-1,2,4-oxadiazol-3-yl)-N-methylpyridin-2-amine]", "EC50": 0.638}
{"compound": "CNc1ncccc1-c1noc(C(Sc2ccc(C)c(C)c2)c2cccc(Cl)c2)n1", "note": "(stereo not shown) [Compound 5, 3-(5-((3-chlorophenyl)((3,4-dimethylphenyl)thio)methyl)-1,2,4-oxadiazol-3-yl)-N-methylpyridin-2-amine]", "EC50": 0.214}
{"compound": "CNc1ncccc1-c1noc(C(SC2CCCCC2)c2cccc(C(F)(F)F)c2)n1", "note": "(stereo not shown) [Compound 6, 3-(5-((cyclohexylthio)(3-(trifluoromethyl)phenyl)methyl)-1,2,4-oxadiazol-3-yl)-N-methylpyridin-2-amine]", "EC50": 3.01}
{"compound": "CNc1ncccc1-c1noc(C(Oc2ccc(C)c(C)c2)c2cccc(Cl)c2)n1", "note": "(stereo not shown) [Compound 7, 3-(5-((3-chlorophenyl)(3,4-dimethylphenoxy)methyl)-1,2,4-oxadiazol-3-yl)-N-methylpyridin-2-amine]", "EC50": 1.54}
{"compound": "CNc1ncccc1-c1noc(C(Sc2ccc(C)c(C)c2)c2ccccc2Cl)n1", "note": "(stereo not shown) [Compound 9, 3-(5-((2-chlorophenyl)((3,4-dimethylphenyl)thio)methyl)-1,2,4-oxadiazol-3-yl)-N-methylpyridin-2-amine]", "EC50": 0.716}
{"compound": "CNc1ncccc1-c1noc(C(Nc2ccc(C)c(C)c2)c2ccccc2)n1", "note": "(stereo not shown) [Compound 10, 3-(5-(((3,4-dimethylphenyl)amino)(phenyl)methyl)-1,2,4-oxadiazol-3-yl)-N-methylpyridin-2-amine]", "EC50": 2.39}
{"compound": "CNc1ncccc1-c1noc(C(Sc2ccoc2C)c2cccc(Cl)c2)n1", "note": "(stereo not shown) [Compound 13, 3-(5-((3-chlorophenyl)((2-methylfuran-3-yl)thio)methyl)-1,2,4-oxadiazol-3-yl)-N-methylpyridin-2-amine]", "EC50": 1.38}
{"compound": "CNc1ncccc1-c1noc(C(Oc2ccc(C)c(C)c2)c2ccc(Cl)cc2)n1", "note": "(stereo not shown) [Compound 15, 3-(5-((4-chlorophenyl)(3,4-dimethylphenoxy)methyl)-1,2,4-oxadiazol-3-yl)-N-methylpyridin-2-amine]", "EC50": 0.509}
{"compound": "CNc1ncccc1-c1noc(C(Sc2ccc(C)cc2C)c2ccc(Cl)cc2)n1", "note": "(stereo not shown) [Compound 16, 3-(5-((4-chlorophenyl)((2,4-dimethylphenyl)thio)methyl)-1,2,4-oxadiazol-3-yl)-N-methylpyridin-2-amine]", "EC50": 2.02}
{"compound": "CNc1ncccc1-c1noc(C(SC2CCCCC2)c2ccc(Cl)cc2)n1", "note": "(stereo not shown) [Compound 17, 3-(5-((4-chlorophenyl)(cyclohexylthio)methyl)-1,2,4-oxadiazol-3-yl)-N-methylpyridin-2-amine]", "EC50": 0.55}
{"compound": "CNc1ncccc1-c1noc(C(Sc2ccc(C)cc2)c2ccc(Cl)cc2)n1", "note": "(stereo not shown) [Compound 18, 3-(5-((4-chlorophenyl)(p-tolylthio)methyl)-1,2,4-oxadiazol-3-yl)-N-methylpyridin-2-amine]", "EC50": 3.19}
{"compound": "CNc1ncccc1-c1noc(C(Sc2ccc(OC)cc2)c2ccc(Cl)cc2)n1", "note": "(stereo not shown) [Compound 20, 3-(5-((4-chlorophenyl)((4-methoxyphenyl)thio)methyl)-1,2,4-oxadiazol-3-yl)-N-methylpyridin-2-amine]", "EC50": 2.56}
{"compound": "CNc1ncccc1-c1noc(C(Oc2ccc(Cl)c(C)c2)c2ccc(Cl)cc2)n1", "note": "(stereo not shown) [Compound 21, 3-(5-((4-chloro-3-methylphenoxy)(4-chlorophenyl)methyl)-1,2,4-oxadiazol-3-yl)-N-methylpyridin-2-amine]", "EC50": 2.08}
{"compound": "CNc1ncccc1-c1noc(C(Sc2ccc(C)c(C)c2)c2ccc(Cl)cc2)n1", "note": "(stereo not shown) [Compound 22, 3-(5-((4-chlorophenyl)((3,4-dimethylphenyl)thio)methyl)-1,2,4-oxadiazol-3-yl)-N-methylpyridin-2-amine]", "EC50": 0.241}
{"compound": "CNc1ncccc1-c1noc(C(Oc2ccc(Cl)cc2)c2ccc(Cl)cc2)n1", "note": "(stereo not shown) [Compound 23, 3-(5-((4-chlorophenoxy)(4-chlorophenyl)methyl)-1,2,4-oxadiazol-3-yl)-N-methylpyridin-2-amine]", "EC50": 2.05}
{"compound": "CNc1ncccc1-c1noc(C(Oc2ccc(C)cc2)c2ccc(Cl)cc2)n1", "note": "(stereo not shown) [Compound 26, 3-(5-((4-chlorophenyl)(p-tolyloxy)methyl)-1,2,4-oxadiazol-3-yl)-N-methylpyridin-2-amine]", "EC50": 3.12}
{"compound": "CNc1ncccc1-c1noc(C(Sc2ccccc2)c2ccccc2)n1", "note": "(stereo not shown) [Compound 27, N-methyl-3-(5-(phenyl(phenylthio)methyl)-1,2,4-oxadiazol-3-yl)pyridin-2-amine]", "EC50": 1.32}
{"compound": "CNc1ncccc1-c1noc(C(Oc2ccc(C)cc2)c2ccccc2Cl)n1", "note": "(stereo not shown) [Compound 30, 3-(5-((2-chlorophenyl)(p-tolyloxy)methyl)-1,2,4-oxadiazol-3-yl)-N-methylpyridin-2-amine]", "EC50": 1.92}
{"compound": "CNc1ncccc1-c1noc(C(Oc2ccc(C)cc2)c2cccc(Cl)c2)n1", "note": "(stereo not shown) [Compound 32, 3-(5-((3-chlorophenyl)(p-tolyloxy)methyl)-1,2,4-oxadiazol-3-yl)-N-methylpyridin-2-amine]", "EC50": 1.34}
{"compound": "CNc1ncccc1-c1noc(C(Oc2cccc(C)c2)c2ccccc2Cl)n1", "note": "(stereo not shown) [Compound 35, 3-(5-((2-chlorophenyl)(m-tolyloxy)methyll)-1,2,4-oxadiazol-3-yl)-N-methylpyridin-2-amine]", "EC50": 2.14}
{"compound": "CNc1ncccc1-c1noc(C(Oc2cccc(Cl)c2)c2ccccc2Cl)n1", "note": "(stereo not shown) [Compound 36, 3-(5-((3-chlorophenoxy)(2-chlorophenyl)methyl)-1,2,4-oxadiazol-3-yl)-N-methylpyridin-2-amine]", "EC50": 2.73}
{"compound": "CNc1ncccc1-c1noc(C(Oc2ccc(C)c(C)c2)c2ccccc2Cl)n1", "note": "(stereo not shown) [Compound 38, 3-(5-((2-chlorophenyl)(3,4-dimethylphenoxy)methyl)-1,2,4-oxadiazol-3-yl)-N-methylpyridin-2-amine]", "EC50": 1.65}
